Measured values reported in PubChem BioAssay AID2060495 (Molecular Pharmacology Branch, DTP, NCI, 2025).
pIC50: −log10 of the molar value.

Test system: 521955-158-R2-J5-PDC complex spheroid viability
Assay: Anticancer human tumor 521955-158-R2-J5-PDC patient-derived pancreatic carcinoma cell line growth inhibition [GQUAD]
Details: for pIC50: curve of first compound; for viability, T/C: stronger effect = lower value
In short: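 Multi-cell-type spheroids of tumor cells with HUVEC and mesenchymal stem cells, treated with drug combinations. Concentrations descend in half-log steps from near clinical Cmax, or from 10 microM where Cmax is unknown; viability read-out.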

[1] = second compound 0.0316 µM, first compound 0.0316 µM
[2] = second compound 0.0316 µM, first compound 0.1 µM
[3] = second compound 0.0316 µM, first compound 0.316 µM
[4] = second compound 0.0316 µM, first compound 1 µM
[5] = second compound 0.0316 µM, first compound 3.16 µM
[6] = second compound 0.0316 µM, first compound 10 µM
[7] = second compound 0.1 µM, first compound 0.0316 µM
[8] = second compound 0.1 µM, first compound 0.1 µM
[9] = second compound 0.1 µM, first compound 0.316 µM
[10] = second compound 0.1 µM, first compound 1 µM
[11] = second compound 0.1 µM, first compound 3.16 µM
[12] = second compound 0.1 µM, first compound 10 µM
[13] = second compound 0.316 µM, first compound 0.0316 µM
[14] = second compound 0.316 µM, first compound 0.1 µM
[15] = second compound 0.316 µM, first compound 0.316 µM
[16] = second compound 0.316 µM, first compound 1 µM
[17] = second compound 0.316 µM, first compound 3.16 µM
[18] = second compound 0.316 µM, first compound 10 µM
[19] = second compound 1 µM, first compound 0.0316 µM
[20] = second compound 1 µM, first compound 0.1 µM
[21] = second compound 1 µM, first compound 0.316 µM
[22] = second compound 1 µM, first compound 1 µM
[23] = second compound 1 µM, first compound 3.16 µM
[24] = second compound 1 µM, first compound 10 µM
[25] = second compound 3.16 µM, first compound 0.0316 µM
[26] = second compound 3.16 µM, first compound 0.1 µM
[27] = second compound 3.16 µM, first compound 0.316 µM
[28] = second compound 3.16 µM, first compound 1 µM
[29] = second compound 3.16 µM, first compound 3.16 µM
[30] = second compound 3.16 µM, first compound 10 µM
[31] = second compound 10 µM, first compound 0.0316 µM
[32] = second compound 10 µM, first compound 0.1 µM
[33] = second compound 10 µM, first compound 0.316 µM
[34] = second compound 10 µM, first compound 1 µM
[35] = second compound 10 µM, first compound 3.16 µM
[36] = second compound 10 µM, first compound 10 µM
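Also: spheroids exposed to agents for one week before reading.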
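For viability, T/C in this document: 100% = DMSO vehicle control viability.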

## Cc1cccc(N(C)C(=O)C2C(O)CCN2c2nc(C)cc(C(F)(F)F)c2C#N)c1 (stereo not drawn) + CN(C)c1ccc(Nc2c3ccc(NC(=O)CCN4CCCC4)cc3nc3cc(NC(=O)CCN4CCCC4)ccc23)cc1
Second compound 0.0316 µM
  pIC50: < 5.00
Second compound 0.1 µM
  pIC50: < 5.00
Second compound 0.316 µM
  pIC50: < 5.00
Second compound 1 µM
  pIC50: < 5.00
Second compound 3.16 µM
  pIC50: < 5.00
Second compound 10 µM
  pIC50: 5.59
[1]
  viability, T/C: 110%
[2]
  viability, T/C: 102%
[3]
  viability, T/C: 99.6%
[4]
  viability, T/C: 107%
[5]
  viability, T/C: 103%
[6]
  viability, T/C: 116%
[7]
  viability, T/C: 102%
[8]
  viability, T/C: 91.4%
[9]
  viability, T/C: 99.3%
[10]
  viability, T/C: 96.3%
[11]
  viability, T/C: 125%
[12]
  viability, T/C: 109%
[13]
  viability, T/C: 104%
[14]
  viability, T/C: 95.2%
[15]
  viability, T/C: 103%
[16]
  viability, T/C: 118%
[17]
  viability, T/C: 130%
[18]
  viability, T/C: 99.9%
[19]
  viability, T/C: 84.6%
[20]
  viability, T/C: 99.7%
[21]
  viability, T/C: 96.3%
[22]
  viability, T/C: 86%
[23]
  viability, T/C: 94.4%
[24]
  viability, T/C: 84.2%
[25]
  viability, T/C: 85.8%
[26]
  viability, T/C: 72.1%
[27]
  viability, T/C: 77.4%
[28]
  viability, T/C: 78%
[29]
  viability, T/C: 93.4%
[30]
  viability, T/C: 54.1%
[31]
  viability, T/C: 67.2%
[32]
  viability, T/C: 54.3%
[33]
  viability, T/C: 58%
[34]
  viability, T/C: 58.4%
[35]
  viability, T/C: 48.5%
[36]
  viability, T/C: 18.8%

## Cn1ncnc1[C@H]1c2n[nH]c(=O)c3cc(F)cc(c23)N[C@@H]1c1ccc(F)cc1 + Cc1cnc(CNC(=O)c2c(=O)c3ccc(N4CCCN(C)CC4)nc3n3c2sc2ccccc23)cn1
Second compound 0.0316 µM
  pIC50: < 6.50
Second compound 0.1 µM
  pIC50: 6.50
Second compound 0.316 µM
  pIC50: > 9.00
Second compound 1 µM
  pIC50: > 9.00
Second compound 3.16 µM
  pIC50: > 9.00
Second compound 10 µM
  pIC50: > 9.00
Second compound 0.0316 µM, first compound 0.000999 µM
  viability, T/C: 85.8%
Second compound 0.0316 µM, first compound 0.00316 µM
  viability, T/C: 70.8%
Second compound 0.0316 µM, first compound 0.00999 µM
  viability, T/C: 67.1%
[1]
  viability, T/C: 62%
Second compound 0.0316 µM, first compound 0.0999 µM
  viability, T/C: 53.9%
[3]
  viability, T/C: 57.5%
Second compound 0.1 µM, first compound 0.000999 µM
  viability, T/C: 62.3%
Second compound 0.1 µM, first compound 0.00316 µM
  viability, T/C: 77.7%
Second compound 0.1 µM, first compound 0.00999 µM
  viability, T/C: 54.8%
[7]
  viability, T/C: 48.2%
Second compound 0.1 µM, first compound 0.0999 µM
  viability, T/C: 54.2%
[9]
  viability, T/C: 55.5%
Second compound 0.316 µM, first compound 0.000999 µM
  viability, T/C: 44.1%
Second compound 0.316 µM, first compound 0.00316 µM
  viability, T/C: 48.6%
Second compound 0.316 µM, first compound 0.00999 µM
  viability, T/C: 44.7%
[13]
  viability, T/C: 34.2%
Second compound 0.316 µM, first compound 0.0999 µM
  viability, T/C: 31.3%
[15]
  viability, T/C: 24.3%
Second compound 1 µM, first compound 0.000999 µM
  viability, T/C: 26.8%
Second compound 1 µM, first compound 0.00316 µM
  viability, T/C: 25.1%
Second compound 1 µM, first compound 0.00999 µM
  viability, T/C: 23.1%
[19]
  viability, T/C: 20%
Second compound 1 µM, first compound 0.0999 µM
  viability, T/C: 21%
[21]
  viability, T/C: 16.6%
Second compound 3.16 µM, first compound 0.000999 µM
  viability, T/C: 16%
Second compound 3.16 µM, first compound 0.00316 µM
  viability, T/C: 19.6%
Second compound 3.16 µM, first compound 0.00999 µM
  viability, T/C: 20.8%
[25]
  viability, T/C: 20.4%
Second compound 3.16 µM, first compound 0.0999 µM
  viability, T/C: 15.3%
[27]
  viability, T/C: 14%
Second compound 10 µM, first compound 0.000999 µM
  viability, T/C: 20.7%
Second compound 10 µM, first compound 0.00316 µM
  viability, T/C: 15.7%
Second compound 10 µM, first compound 0.00999 µM
  viability, T/C: 21.8%
[31]
  viability, T/C: 19.8%
Second compound 10 µM, first compound 0.0999 µM
  viability, T/C: 15.7%
[33]
  viability, T/C: 17.2%

## Nc1ccn(C2OC(CO)C(O)C2(F)F)c(=O)n1 (stereo not drawn) + Cc1[nH]c2ccc(F)cc2c1-c1nc2c3cccnc3c3ncccc3c2[nH]1
Second compound 0.0316 µM
  pIC50: 6.38
Second compound 0.1 µM
  pIC50: 6.37
Second compound 0.316 µM
  pIC50: 6.36
Second compound 1 µM
  pIC50: 6.35
Second compound 3.16 µM
  pIC50: 6.31
Second compound 10 µM
  pIC50: 6.33
[1]
  viability, T/C: 78.3%
[2]
  viability, T/C: 83.1%
[3]
  viability, T/C: 61.9%
[4]
  viability, T/C: 13.8%
[5]
  viability, T/C: 10.5%
[6]
  viability, T/C: 7.49%
[7]
  viability, T/C: 77.1%
[8]
  viability, T/C: 79.2%
[9]
  viability, T/C: 58.9%
[10]
  viability, T/C: 22.3%
[11]
  viability, T/C: 10.8%
[12]
  viability, T/C: 6.82%
[13]
  viability, T/C: 89%
[14]
  viability, T/C: 75.3%
[15]
  viability, T/C: 64.1%
[16]
  viability, T/C: 15%
[17]
  viability, T/C: 10.6%
[18]
  viability, T/C: 7.06%
[19]
  viability, T/C: 88.9%
[20]
  viability, T/C: 80.4%
[21]
  viability, T/C: 61.6%
[22]
  viability, T/C: 25.1%
[23]
  viability, T/C: 9.92%
[24]
  viability, T/C: 7.24%
[25]
  viability, T/C: 92.8%
[26]
  viability, T/C: 93.3%
[27]
  viability, T/C: 66.4%
[28]
  viability, T/C: 21.8%
[29]
  viability, T/C: 12.9%
[30]
  viability, T/C: 10.2%
[31]
  viability, T/C: 109%
[32]
  viability, T/C: 104%
[33]
  viability, T/C: 61.7%
[34]
  viability, T/C: 25.3%
[35]
  viability, T/C: 8.99%
[36]
  viability, T/C: 7.65%

## CC(=O)O[C@H]1C(=O)[C@@]2(C)[C@H]([C@H](OC(=O)c3ccccc3)[C@]3(O)C[C@H](OC(=O)[C@H](O)[C@@H](NC(=O)c4ccccc4)c4ccccc4)C(C)=C1C3(C)C)[C@]1(OC(C)=O)CO[C@@H]1C[C@@H]2O + Cc1[nH]c2ccc(F)cc2c1-c1nc2c3cccnc3c3ncccc3c2[nH]1
Second compound 0.0316 µM
  pIC50: > 7.50
Second compound 0.1 µM
  pIC50: > 7.50
Second compound 0.316 µM
  pIC50: > 7.50
Second compound 1 µM
  pIC50: > 7.50
Second compound 3.16 µM
  pIC50: > 7.50
Second compound 10 µM
  pIC50: > 7.50
[1]
  viability, T/C: 46.1%
[2]
  viability, T/C: 34.1%
[3]
  viability, T/C: 31%
[4]
  viability, T/C: 30.8%
[5]
  viability, T/C: 30.8%
[6]
  viability, T/C: 25.6%
[7]
  viability, T/C: 49%
[8]
  viability, T/C: 43.9%
[9]
  viability, T/C: 39%
[10]
  viability, T/C: 31.2%
[11]
  viability, T/C: 35.7%
[12]
  viability, T/C: 29.9%
[13]
  viability, T/C: 47.6%
[14]
  viability, T/C: 37.5%
[15]
  viability, T/C: 31.4%
[16]
  viability, T/C: 27.5%
[17]
  viability, T/C: 32.1%
[18]
  viability, T/C: 24.2%
[19]
  viability, T/C: 43.6%
[20]
  viability, T/C: 41.5%
[21]
  viability, T/C: 43.4%
[22]
  viability, T/C: 31.5%
[23]
  viability, T/C: 19.8%
[24]
  viability, T/C: 33.5%
[25]
  viability, T/C: 38.7%
[26]
  viability, T/C: 36.7%
[27]
  viability, T/C: 30.6%
[28]
  viability, T/C: 32.5%
[29]
  viability, T/C: 34.9%
[30]
  viability, T/C: 30.2%
[31]
  viability, T/C: 41.3%
[32]
  viability, T/C: 41.9%
[33]
  viability, T/C: 32.8%
[34]
  viability, T/C: 40.2%
[35]
  viability, T/C: 37.7%
[36]
  viability, T/C: 39%
